Test system: HepaFH3 (proliferation-competent liver cells)
Details: human, 100 μM
Method: HepG2 cells (ATCC HB-8065) are cultivated in the medium DMEM PAA (Pasching, Austria), to which is added 10% FCS Gold, 2 mM L-glutamine, 100 U/mL penicillin, and 0.1 mg/mL streptomycin. Primary human hepatocytes (pHHs) are commercially obtained from, e.g., TebuBio (Le Perray-en-Yvelines, France) or Promocell (Heidelberg, Germany). The cells are seeded onto 50 μg/mL collagen type I (rat tail, BD Biosciences, San Jose, USA) coated cell culture plates and cultivated at 37° C. under 5% CO2 in hepatocyte growth medium (Promocell GmbH, Heidelberg, Germany) or equivalent cell culture media of other manufacturers known to the person skilled in the art. These pHHs can be used for metabolite production immediately or after production of proliferation-competent liver cells. To accomplish this, proliferation genes are transduced into the cells using a lentiviral vector. This technique is described in WO2009/030217A2 (Braspenning et al. (2007)). […] The proliferating hepatocyte clones (cell lines) are characterized with respect to their liver cell markers. […] For definition of sequences to generate primers, the person skilled in the art can use databases such as the NCBI GenBank® (http://www.ncbi.nlm.nih.gov/genbank) or the European Nucleotide Archive (http://www.ebi.ac.uk/ena/). For phase I, the most relevant enzymes are those of the cytochrome P450 (CYP) family. […]

O=C(O)Cc1ccccc1Nc1c(Cl)cccc1Cl [Diclofenac]
Metabolite 4′-OH-diclofenac formed: 7.13 ± 2.22 pmol/(min*10^6 cells)
